Results taken from US20230226040A1, “COMBINATION THERAPY COMPRISING AN FGFR INHIBITOR AND A KRAS INHIBITOR” (Incyte Corporation, priority 2021, published 2023).
Several values for one entry are separate records, joined by “and”; a condition that tells them apart may be missing. Identical values can stand only once.

Assays:
pFRS2a [1] = assay: Western blot of pFRS2a in LU99 cell lysate (90 hours treatment); format: cell-based; conditions: LU99 cells; 50 nM KRAS G12C inhibitor alone
Description: FGFR1 and downstream activation marker pFRS2a protein levels were examined in indicated cell lines, as well as markers for epithelial-like cells (E-cadherin) and mesenchymal-like cells (Vimentin).

LU99 cells = assay: siRNA FGFR knockdown plus KRAS G12C inhibitor, Cell Titer Glo proliferation; format: cell-based; conditions: 120 h
Procedure: Knockdown efficiency was assessed by Western blot and its effect was measured by cell proliferation inhibition.
The lyophilized siRNA pools or individuals (Dharmacon ON-TARGET plus siRNA from Horizon Discovery) were reconstituted by combining 1× siRNA buffer (200 μL) with lyophilized siRNA (20 nmol); or combining 1× siRNA buffer (100 μL) with lyophilized siRNA (10 nmol). Dharmafect Reagent 1 was prepared at a 1:200 dilution in 1X siRNA buffer. One tube of diluted reagent was prepared for each siRNA dilution. To each tube, the appropriate siRNA was added to Dharmafect Reagent 1 at a 1:400 dilution. The prepared siRNA reagent ([…]) was added to the appropriate number of wells on a 96-well clear bottom Greiner plate and incubated at room temperature for 30 min.
For plating in 96-well pates, 2000 LU99 cells per well in 100 μL of medium were prepared. The prepared cells (100 μL per well) were added to each well of the 96-well plate and incubated at 48 h.
Compound plates were prepared with a compound starting concentration of 5 mM in a 3-fold dilution. Following 48 h transfection incubation, the appropriate compounds were added to the 96-well plate at a final starting concentration of 5 μM in 3-fold dilution (11 point dose response curve). After addition of the compounds, the 96-well plates were incubated at 37° C. for 120 h. After this time, Cell Titer Glo reagent is reconstituted and 100 μL of reagent was added per well. The plates were tapped gently and luminescence was read on a Pherastar microplate reader.

pFRS2a [2] = assay: Western blot of pFRS2a in LU99 cells (24 hours treatment, with or without rhFGF); format: cell-based; conditions: 100 nM KRAS G12C inhibitor, with or without rhFGF stimulation
Procedure: LU99 cells were treated with 100 nM of Compound 2, pemigatinib, Compound 1, or indication combination for 24 hours, and with or without lng/ml recombinant human FGF (rhFGF) before harvesting the lysate.
Cells were seeded in Corning 6-well tissue culture treated plates in RPMI medium with 10% FBS at 6×10^5 cells/well. After 48 hours, cells were or treated with indicated compounds for 24 hours at 37° C., 5% CO2. rhFGF—basic (R&D systems 233-FB) was added at 1 nG/ml for 15 minutes at the end of the experiment as indicated. The cells were washed with PBS and lysed with 1x lysis buffer (Cell Signaling #9803) with protease and phosphatase inhibitors. Twenty-five μg of total protein lysates was subjected to SDS-PAGE and immunoblot analysis using the following Cell Signaling antibodies: pERK (#4370) phospho-FRS2a (#3861) and beta-Actin (#12620).
Cells were seeded in Corning 6-well tissue culture treated plates in RPMI medium with 10% FBS at 6x10^5 cells/well. After 48 hours, cells were or treated with indicated compounds for 24 hours at 37° C., 5% CO2. rhFGF—basic (R&D systems 233-FB) was added at 1 nG/ml for 15 minutes at the end of the experiment as indicated. The cells were washed with PBS and lysed with 1× lysis buffer (Cell Signaling #9803) with protease and phosphatase inhibitors. […]

[3] = tested on: LU99 lung cancer xenograft; assay: LU99 xenograft model, tumor growth inhibition; format: in vivo; conditions: NCr nude mice; AMG510 20 mg/kg, pemigatinib 0.3 mg/kg, alone or combined; oral QD, 30 days; last day of treatment
Procedure: The in vivo effect of combining the FGFR1 inhibitor pemigatinib plus the KRAS G12C inhibitor AMG510 was assessed in the LU99 lung cancer model (JCRB0080, JCRB) xenograft model (FIG. 3) in 6 to 8 week old female NCr nude mice (Taconic). Pemigatinib and AMG510 were suspended in 5% N,N-dimethyl acetamide (DMAC)+50 mM Citrate buffer (pH 3.0) in 0.5% methyl cellulose for oral administration. Briefly, mice were inoculated in the left flank with 1×10^7 LU99 cells re-suspended in a PBS and matrigel (Corning Life Sciences, Tewksbury, Mass) solution at 1:1. On Day 7, mice were randomized into 4 groups of 10 mice at approximate mean volume (˜212 mm^3). […] Tumor growth inhibition was calculated using the formula (1−(VT/VC))×100, where VT is the tumor volume of the treatment group on the last day of treatment, and Vc is the tumor volume of the control group on the last day of treatment. […] Statistics were determined using One-Way ANOVA.
Briefly, mice were inoculated in the left flank with 1×10^7LU99 cells re-suspended in a PBS and matrigel (Corning Life Sciences, Tewksbury, Mass) solution at 1:1. […] TGI was calculated using the formula (1−(VT/VC))×100, where VT is the tumor volume of the treatment group on the last day of treatment, and VC is the tumor volume of the control group on the last day of treatment. […]

[4] = tested on: MiaPaca2 KRAS G12C resistant clone 11; assay: 5-day Cell Titer Glo viability and Bliss score; format: cell-based; conditions: CLONE 11, 5-day CTG
Procedure: (§1) For G12C resistant clone generation, MiaPaca2 parent cells were cultured with increasing concentrations of AMG510 (up to 1μM) over time. The viable cells were re-fed fresh media containing AMG510 weekly. Once the AMG510 resistant cells were growing at normal rates in the presence of 1μM AMG510, they were cloned by limiting dilution. Eight clones were selected for continued passage and further experiments.

[5] = tested on: MiaPaca2 KRAS G12C resistant clone 7; assay: 5-day Cell Titer Glo viability and Bliss score; format: cell-based; conditions: 5-day CTG
Procedure: as §1

[6] = tested on: MiaPaca2 KRAS G12C resistant clone 23; assay: 5-day Cell Titer Glo viability and Bliss score; format: cell-based; conditions: 5-day CTG
Procedure: as §1

[7] = tested on: MiaPaca2 KRAS G12C resistant clone 28; assay: 5-day Cell Titer Glo viability and Bliss score; format: cell-based; conditions: 5-day CTG
Procedure: as §1

Calu-1 = assay: 5-day Cell Titer Glo combination matrix, Bliss score; format: cell-based; conditions: Calu-1 (Lung, Mesenchymal); KRAS inhibitor in combination with pemigatinib; 5 days
Procedure: (§2) Cells were seeded in RPMI medium with 10% HI FBS at a density of 500 cells/well in Greiner, white, clear bottom, 384-well tissue culture treated plates containing 10×10 combination matrices of compound. Plates were incubated at 37° C., 5% CO2 for 5 days. On day 5, Cell Titer Glo reagent was added to the plates and ATP luminescence was detected using a Pherastar FSX reader. The synergy score for the combination effect was calculated using a Bliss score model where the Bliss score=Yab-(Ya+Yb−(YaYb))×100, where Ya and Yb are the monotherapies. Bliss scores >20 are strongly synergistic and a higher Bliss scores indicates a higher level of synergism.

H1792 = assay: as above; format: cell-based; conditions: H1792 (Lung, Mesenchymal); KRAS inhibitor in combination with pemigatinib; 5 days
Procedure: as §2
(§3) Cells were seeded in RPMI medium with 10% HI FBS at a density of 500 cells/well in Greiner, white, clear bottom, 384-well tissue culture treated plates containing 10×10 combination matrices of compound. Plates were incubated at 37° C., 5% CO2 for 5 days. On day 5, Cell Titer Glo reagent was added to the plates and ATP luminescence was detected using a Pherastar FSX reader. Synergy score for the combination effect is calculated using a Bliss score model where the Bliss score=Yab−(Ya+Yb−(YaYb))×100, where Ya and Yb are the monotherapies. Bliss scores >20 are strongly synergistic and a higher Bliss scores indicates a higher level of synergism.
(§4) Cells were seeded in RPMI medium with 10% HI FBS at a density of 500 cells/well in Greiner, white, clear bottom, 384-well tissue culture treated plates containing 10×10 combination matrices of compound. Plates were incubated at 37° C., 5% CO2 for 5 days. On day 5, Cell Titer Glo reagent was added to the plates and ATP luminescence was detected using a Pherastar FSX reader. The synergy score for the combination effect was calculated using a Bliss score model where the Bliss score=Yab−(Ya+Yb−(YaYb))×100, where Ya and Yb are the monotherapies. Bliss scores >20 are strongly synergistic and a higher Bliss scores indicates a higher level of synergism.

SW-1573 = assay: as above; format: cell-based; conditions: SW-1573 (Lung, Mesenchymal); KRAS inhibitor in combination with pemigatinib; 5 days
Procedure: as §2, §3, §4

SW-837 = assay: as above; format: cell-based; conditions: SW-837 (CRC, Epithelial); KRAS inhibitor in combination with pemigatinib; 5 days
Procedure: as §2, §4

H358 = assay: as above; format: cell-based; conditions: H358 (Lung, Epithelial); KRAS inhibitor in combination with pemigatinib; 5 days
Procedure: as §2, §3, §4

HCC-44 = assay: as above; format: cell-based; conditions: HCC-44 (Lung, Mesenchymal); KRAS inhibitor in combination with pemigatinib; 5 days
Procedure: as §2, §4

[8] = in the absence of FGFR1, FGFR2 or FGFR3

SMILES: COC/C=C/C(=O)N1CC[C@H](n2nnc3c(N4CC(C)(N(C)C)C4)nc4c(F)c(-c5ccc(F)c6cccnc56)c(C(F)(F)F)cc4c32)C[C@H]1CC#N [Compound 2, 2-((2S,4S)-4-(4-(3-(dimethylamino)-3-methylazetidin-1-yl)-6-fluoro-7-(5-fluoroquinolin-8-yl)-8-(trifluoromethyl)-1H-[1,2,3]triazolo[4,5-c]quinolin-1-yl)-1-((E)-4-methoxybut-2-enoyl)piperidin-2-yl)acetonitrile]
- protein level of pFRS2a (pFRS2a [1]): elevated the protein level of pFRS2a
- inhibition of LU99 cell proliferation after siRNA knockdown (LU99 cells; all FGFR isoforms knocked down, in particular in the absence of FGFR1 and FGFR2): higher inhibition in proliferation
- inhibition of LU99 cell proliferation after siRNA knockdown (LU99 cells; [8]): higher inhibition in proliferation
- pFRS2a signaling (pFRS2a [2]): elevated

SMILES: C=CC(=O)N1CCN(c2nc(=O)n(-c3c(C)ccnc3C(C)C)c3nc(-c4c(O)cccc4F)c(F)cc23)[C@@H](C)C1 [AMG-510]
- protein level of pFRS2a (pFRS2a [1]): elevated the protein level of pFRS2a
- inhibition of LU99 cell proliferation after siRNA knockdown (LU99 cells; [8]): higher inhibition in proliferation
- inhibition of LU99 cell proliferation after siRNA knockdown (LU99 cells; in the absence of FGFR1 or FGFR4): higher inhibition in proliferation
- TGI (tumor growth inhibition) [3]: 66%
- % viability, G12C i 111 nM ([4]; G12C i alone (Compound 1 arm)): 63%
- % viability, G12C i 111 nM ([4]; G12C i alone (Pemi arm)): 67%
- % viability, G12C i 111 nM ([5]; Average, G12C i alone (Compound 1 arm)): 77.6%
- % viability, G12C i 111 nM ([5]; Average, G12C i alone (Pemi arm)): 77.8%
- % viability, G12C i 111 nM ([5]; G12C i alone (Compound 1 arm), single experiments): 67.1% and 88%
- % viability, G12C i 111 nM ([5]; G12C i alone (Pemi arm), single experiments): 69.6% and 90% and 73.7%
- % viability, G12C i 111 nM ([6]; G12C i alone (Compound 1 arm)): 83.9%
- % viability, G12C i 111 nM ([6]; G12C i alone (Pemi arm)): 90.9%
- % viability, G12C i 111 nM ([7]; G12C i alone (Compound 1 arm)): 77.5%
- % viability, G12C i 111 nM ([7]; G12C i alone (Pemi arm)): 69.6%
- Avg. Bliss Score (Calu-1): 11.2
- Avg. Bliss Score (H1792): 26.7
- Avg. Bliss Score (SW-1573): 25.9
- Avg. Bliss Score (SW-837): −7.7
- Avg. Bliss Score (H358): 3.7
- Avg. Bliss Score (HCC-44): 4.4
